Drawing on US7030125B2, “Isothiazole and isoxazole compounds as transforming growth factor (TGF) inhibitors” (Pfizer, Inc., priority 2002, dated 2006), this text covers IC50 for one compound.

The structures appear in SMILES notation.

For the test, the target named is T1, ALK-5 (TβRI) (Homo sapiens, UniProt P36897).
T1 construct: using either the kinase domain of ALK5 with Smad3 as substrate; GST
T1 sequence (P36897 205-495 limits assumed): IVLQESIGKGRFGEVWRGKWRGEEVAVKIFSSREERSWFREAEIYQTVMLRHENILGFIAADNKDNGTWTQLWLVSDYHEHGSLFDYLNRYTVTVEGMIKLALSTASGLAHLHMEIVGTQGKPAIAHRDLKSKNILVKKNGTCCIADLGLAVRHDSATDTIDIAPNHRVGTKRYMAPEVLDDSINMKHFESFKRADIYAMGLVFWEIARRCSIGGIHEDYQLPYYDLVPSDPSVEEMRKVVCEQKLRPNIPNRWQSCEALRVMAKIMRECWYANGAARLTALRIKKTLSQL
The test is described as follows: ALK-5 (TβRI) Kinase Assay. The class given is biochemical. To be noted: GST-ALK5 with GST-Smad3 as substrate; read-out: TβRIIC50 value. Here is the method:
The kinase assays were performed with 65 nM GST-ALK5 and 84 nM GST-Smad3 in 50 mM HEPES, 5 mM MgCl2, 1 mM CaCl2, 1 mM dithiothreitol, and 3_M ATP. Reactions were incubated with 0.5_Ci of [33 P]_ATP for 3 h at 30° C. Phosphorylated protein was captured on P-81 paper (Whatman, Maidstone, England), washed with 0.5% phosphoric acid, and counted by liquid scintillation. Alternatively, Smad3 or Smad1 protein was also coated onto FlashPlate Sterile Basic Microplates (PerkinElmer Life Sciences, Boston, Mass.). Kinase assays were then performed in Flash-Plates with same assay conditions using either the kinase domain of ALK5 with Smad3 as substrate or the kinase domain of ALK6 (BMP receptor) with Smad1 as substrate. Plates were washed three times with phosphate buffer and counted by TopCount (Packard Bio-science, Meriden, Conn.). (Laping, N.J. et al. Molecular Pharmacology 62:58–64 (2002)).

As for `COc1ccc2nccc(-c3conc3-c3cccc(C)n3)c2c1` [Example 5, 6-Methoxy-4-[3-(6-methyl-pyridin-2-yl)-isoxazol-4-yl]-quinoline], the IC50 is around 118 nM.
